Legend:
[1] = excess molar enthalpy (molar enthalpy of mixing); xn = mol fraction of the nth substance listed; settings: 298.15 K, 101 kPa, Liquid, Calvet calorimetry
[2] = xn = mol fraction of the nth substance listed; settings: 298.15 K, 101 kPa, Liquid, Vibrating tube method

CCCOC=O [propyl methanoate] + ClCCCCCl
Settings	excess molar enthalpy [kcal/mol]	mass density [kg/m3]
[1], x1 = 0.0692	0.00932	–
[1], x1 = 0.1586	0.0155	–
[1], x1 = 0.2416	0.0191	–
[1], x1 = 0.3365	0.0184	–
[1], x1 = 0.4234	0.0148	–
[1], x1 = 0.5005	0.01	–
[1], x1 = 0.5667	0.00406	–
[1], x1 = 0.6288	-0.00382	–
[1], x1 = 0.6884	-0.00837	–
[1], x1 = 0.7528	-0.00908	–
[1], x1 = 0.817	-0.00908	–
[1], x1 = 0.8815	-0.00669	–
[1], x1 = 0.9414	-0.00311	–
[2], x1 = 0.0699	–	1119.28
[2], x1 = 0.1344	–	1105.73
[2], x1 = 0.2012	–	1091.45
[2], x1 = 0.3873	–	1050.4
[2], x1 = 0.4476	–	1036.71
[2], x1 = 0.5676	–	1008.76
[2], x1 = 0.6231	–	995.55
[2], x1 = 0.6814	–	981.44
[2], x1 = 0.7384	–	967.39
[2], x1 = 0.7933	–	953.67
[2], x1 = 0.8452	–	940.47
[2], x1 = 0.8982	–	926.78
[2], x1 = 0.9521	–	912.65
[2], x1 = 1	–	899.81

ClCCCCCl [1,4-dichlorobutane] + CCCOC(=O)CC
Settings	excess molar enthalpy [kcal/mol]	mass density [kg/m3]
[1], x2 = 0.0573	-0.00621	–
[1], x2 = 0.133	-0.0151	–
[1], x2 = 0.2168	-0.0308	–
[1], x2 = 0.3006	-0.0461	–
[1], x2 = 0.381	-0.0598	–
[1], x2 = 0.4539	-0.071	–
[1], x2 = 0.5117	-0.0743	–
[1], x2 = 0.5559	-0.0743	–
[1], x2 = 0.6419	-0.071	–
[1], x2 = 0.7366	-0.0621	–
[1], x2 = 0.8338	-0.0447	–
[1], x2 = 0.9261	-0.0227	–
[2], x2 = 0.0527	–	1118.03
[2], x2 = 0.1038	–	1102.83
[2], x2 = 0.1547	–	1087.98
[2], x2 = 0.2085	–	1072.56
[2], x2 = 0.2627	–	1057.37
[2], x2 = 0.3186	–	1041.98
[2], x2 = 0.3736	–	1027.16
[2], x2 = 0.49	–	996.65
[2], x2 = 0.5485	–	981.77
[2], x2 = 0.612	–	965.97
[2], x2 = 0.6735	–	950.93
[2], x2 = 0.7351	–	936.2
[2], x2 = 0.8004	–	920.88
[2], x2 = 0.866	–	905.76
[2], x2 = 0.9333	–	890.53

CCCOC(C)=O [propyl ethanoate] + ClCCCCCl
Settings	mass density [kg/m3]
[2], x1 = 1	882.08

ClCCCl [1,2-dichloroethane] + CCCOC(C)=O
Settings	excess molar enthalpy [kcal/mol]	mass density [kg/m3]
[1], x2 = 0.0472	-0.0155	–
[1], x2 = 0.1047	-0.0332	–
[1], x2 = 0.1719	-0.0559	–
[1], x2 = 0.2424	-0.0793	–
[1], x2 = 0.3127	-0.102	–
[1], x2 = 0.3806	-0.117	–
[1], x2 = 0.4423	-0.128	–
[1], x2 = 0.5012	-0.132	–
[1], x2 = 0.5663	-0.13	–
[1], x2 = 0.6408	-0.122	–
[1], x2 = 0.7169	-0.107	–
[1], x2 = 0.8115	-0.0784	–
[1], x2 = 0.9076	-0.0447	–
[2], x2 = 0.0403	–	1224.14
[2], x2 = 0.0822	–	1202.71
[2], x2 = 0.1258	–	1181.25
[2], x2 = 0.1723	–	1159.34
[2], x2 = 0.2206	–	1137.71
[2], x2 = 0.271	–	1116.1
[2], x2 = 0.323	–	1094.66
[2], x2 = 0.3773	–	1073.38
[2], x2 = 0.435	–	1051.79
[2], x2 = 0.4925	–	1031.26
[2], x2 = 0.5542	–	1010.09
[2], x2 = 0.6231	–	987.69
[2], x2 = 0.693	–	966.04
[2], x2 = 0.7654	–	944.7
[2], x2 = 0.8389	–	924.07
[2], x2 = 0.9173	–	903.11

ClCCCCCCl [1,5-dichloropentane] + CCCOC(=O)CC
Settings	excess molar enthalpy [kcal/mol]	mass density [kg/m3]
[1], x2 = 0.0588	-0.00406	–
[1], x2 = 0.1375	-0.0136	–
[1], x2 = 0.2257	-0.0241	–
[1], x2 = 0.3118	-0.0375	–
[1], x2 = 0.3922	-0.0495	–
[1], x2 = 0.4517	-0.0576	–
[1], x2 = 0.4693	-0.059	–
[1], x2 = 0.5239	-0.0609	–
[1], x2 = 0.5982	-0.0588	–
[1], x2 = 0.6783	-0.0526	–
[1], x2 = 0.7663	-0.0425	–
[1], x2 = 0.855	-0.0287	–
[1], x2 = 0.9359	-0.0146	–
[2], x2 = 0.0586	–	1081.99
[2], x2 = 0.1204	–	1068.2
[2], x2 = 0.1736	–	1056.39
[2], x2 = 0.2854	–	1031.55
[2], x2 = 0.3403	–	1019.42
[2], x2 = 0.4006	–	1006.12
[2], x2 = 0.5242	–	978.97
[2], x2 = 0.635	–	954.74
[2], x2 = 0.6961	–	941.43
[2], x2 = 0.7548	–	928.67
[2], x2 = 0.8219	–	914.07
[2], x2 = 0.8809	–	901.3
[2], x2 = 0.942	–	888.12

CCCOC(=O)CCC [propyl butanoate] + ClCCCCCCCl
Settings	excess molar enthalpy [kcal/mol]	mass density [kg/m3]
[1], x1 = 0.0619	-0.00526	–
[1], x1 = 0.1445	-0.011	–
[1], x1 = 0.2343	-0.0182	–
[1], x1 = 0.3207	-0.0258	–
[1], x1 = 0.3911	-0.0327	–
[1], x1 = 0.4594	-0.0378	–
[1], x1 = 0.5174	-0.0404	–
[1], x1 = 0.5559	-0.0411	–
[1], x1 = 0.6181	-0.0402	–
[1], x1 = 0.6903	-0.037	–
[1], x1 = 0.7651	-0.0315	–
[1], x1 = 0.849	-0.0229	–
[1], x1 = 0.9334	-0.012	–
[2], x1 = 0.1123	–	1041.34
[2], x1 = 0.1686	–	1030.2
[2], x1 = 0.2265	–	1018.77
[2], x1 = 0.2841	–	1007.46
[2], x1 = 0.3424	–	995.99
[2], x1 = 0.4025	–	984.2
[2], x1 = 0.4598	–	973.01
[2], x1 = 0.5766	–	950.16
[2], x1 = 0.6959	–	926.91
[2], x1 = 0.755	–	915.37
[2], x1 = 0.8145	–	903.79
[2], x1 = 0.8778	–	891.49
[2], x1 = 0.9367	–	880.14
[2], x1 = 1	–	867.9

ClCCCCCCCl [1,6-dichlorohexane] + CCCOC(C)=O
Settings	excess molar enthalpy [kcal/mol]	mass density [kg/m3]
[1], x2 = 0.0861	0.00598	–
[1], x2 = 0.1716	0.00478	–
[1], x2 = 0.2676	-0.00311	–
[1], x2 = 0.3149	-0.00765	–
[1], x2 = 0.3896	-0.0146	–
[1], x2 = 0.4563	-0.0196	–
[1], x2 = 0.5169	-0.0239	–
[1], x2 = 0.5684	-0.0253	–
[1], x2 = 0.5761	-0.0246	–
[1], x2 = 0.6268	-0.0241	–
[1], x2 = 0.6841	-0.022	–
[1], x2 = 0.7455	-0.0194	–
[1], x2 = 0.8101	-0.0153	–
[1], x2 = 0.8793	-0.0105	–
[1], x2 = 0.9463	-0.00574	–
[2], x2 = 0.0708	–	1053.44
[2], x2 = 0.1405	–	1042.95
[2], x2 = 0.208	–	1032.5
[2], x2 = 0.2725	–	1022.22
[2], x2 = 0.3392	–	1011.28
[2], x2 = 0.4656	–	989.61
[2], x2 = 0.584	–	968.14
[2], x2 = 0.6947	–	946.95
[2], x2 = 0.8017	–	925.34
[2], x2 = 0.8514	–	914.87
[2], x2 = 0.902	–	903.96
[2], x2 = 0.9502	–	893.34

CCCOC(=O)CC [propyl propanoate] + ClCCCCCCCl
Settings	mass density [kg/m3]
[2], x1 = 1	875.61

CCCOC(C)=O [propyl ethanoate] + ClCCCCCCCl
Settings	mass density [kg/m3]
[2], x1 = 1	882.08

CCCOC(=O)CC [propyl propanoate] + ClCCCl
Settings	excess molar enthalpy [kcal/mol]	mass density [kg/m3]
[1], x1 = 0.0428	-0.0129	–
[1], x1 = 0.1001	-0.0299	–
[1], x1 = 0.1671	-0.0526	–
[1], x1 = 0.2376	-0.0758	–
[1], x1 = 0.3085	-0.0975	–
[1], x1 = 0.3736	-0.115	–
[1], x1 = 0.4312	-0.125	–
[1], x1 = 0.4782	-0.132	–
[1], x1 = 0.5177	-0.133	–
[1], x1 = 0.5861	-0.128	–
[1], x1 = 0.671	-0.117	–
[1], x1 = 0.7874	-0.0853	–
[1], x1 = 0.9084	-0.0437	–
[2], x1 = 0.0347	–	1224.28
[2], x1 = 0.0727	–	1201.87
[2], x1 = 0.1118	–	1180.16
[2], x1 = 0.1538	–	1158.1
[2], x1 = 0.1965	–	1136.61
[2], x1 = 0.2437	–	1114.31
[2], x1 = 0.2932	–	1092.38
[2], x1 = 0.3455	–	1070.49
[2], x1 = 0.3994	–	1049.24
[2], x1 = 0.4599	–	1026.87
[2], x1 = 0.5188	–	1006.4
[2], x1 = 0.5854	–	984.69
[2], x1 = 0.6557	–	963.29
[2], x1 = 0.7316	–	941.63
[2], x1 = 0.8153	–	919.43
[2], x1 = 0.8998	–	898.5
[2], x1 = 1	–	875.61

CCCOC=O [propyl methanoate] + ClCCCCCCCl
Settings	excess molar enthalpy [kcal/mol]	mass density [kg/m3]
[1], x1 = 0.0891	0.021	–
[1], x1 = 0.2066	0.0373	–
[1], x1 = 0.3241	0.049	–
[1], x1 = 0.4164	0.0523	–
[1], x1 = 0.4832	0.0504	–
[1], x1 = 0.5353	0.0473	–
[1], x1 = 0.5847	0.0433	–
[1], x1 = 0.6323	0.039	–
[1], x1 = 0.6975	0.0323	–
[1], x1 = 0.7658	0.0249	–
[1], x1 = 0.8389	0.0165	–
[1], x1 = 0.9059	0.00908	–
[1], x1 = 0.9621	0.00382	–
[2], x1 = 0.0861	–	1054
[2], x1 = 0.1676	–	1044.21
[2], x1 = 0.2459	–	1034.25
[2], x1 = 0.3157	–	1024.9
[2], x1 = 0.3867	–	1014.88
[2], x1 = 0.4515	–	1005.28
[2], x1 = 0.5124	–	995.82
[2], x1 = 0.6287	–	976.43
[2], x1 = 0.6818	–	966.95
[2], x1 = 0.7826	–	947.72
[2], x1 = 0.8311	–	937.83
[2], x1 = 0.8777	–	927.92
[2], x1 = 0.9609	–	909.1
[2], x1 = 1	–	899.81
